target: T1, human LPA1 (Homo sapiens, UniProt Q92633); test: LPA1 functional antagonist assay (calcium flux); assay type: cell-based; conditions: CHO cells overexpressing human LPA1; inhibition of calcium flux induced by 10 nM LPA; read-out: hLPA1 IC50
T1 construct: expressed in transfected cells; host or cells: Chinese hamster ovary (CHO) cells
Protocol: The effectiveness of compounds of the present invention as LPA1 inhibitors can be determined in an LPA1 functional antagonist assay as follows:
Chinese hamster ovary cells overexpressing human LPA1 were plated overnight (15,000 cells/well) in poly-D-lysine coated 384-well microplates (Greiner bio-one, Cat #781946) in DMEM/F12 medium (Gibco, Cat #11039). Following overnight culture, cells were loaded with calcium indicator dye (AAT Bioquest Inc, Cat #34601) for 30 minutes at 37° C. The cells were then equilibrated to room temperature for 30 minutes before the assay. Test compounds solubilized in DMSO were transferred to 384 well non-binding surface plates (Corning, Cat #3575) using the Labcyte Echo acoustic dispense and diluted with assay buffer [1×HBSS with calcium/magnesium (Gibco Cat #14025-092), 20 mM HEPES (Gibco Cat #15630-080) and 0.1% fatty acid free BSA (Sigma Cat #A9205)] to a final concentration of 0.5% DMSO. Diluted compounds were added to the cells by FDSS6000 (Hamamatsu) at final concentrations ranging from 0.08 nM to 5 μM. and were then incubated for 20 min at room temperature at which time LPA (Avanti Polar Lipids Cat #857130C) was added at final concentrations of 10 nM to stimulate the cells. The compound IC50 value was defined as the concentration of test compound which inhibited 50% of the calcium flux induced by LPA alone. IC50 values were determined by fitting data to a 4-parameter logistic equation (GraphPad Prism, San Diego Calif.).

T1 sequence (Q92633 whole entry): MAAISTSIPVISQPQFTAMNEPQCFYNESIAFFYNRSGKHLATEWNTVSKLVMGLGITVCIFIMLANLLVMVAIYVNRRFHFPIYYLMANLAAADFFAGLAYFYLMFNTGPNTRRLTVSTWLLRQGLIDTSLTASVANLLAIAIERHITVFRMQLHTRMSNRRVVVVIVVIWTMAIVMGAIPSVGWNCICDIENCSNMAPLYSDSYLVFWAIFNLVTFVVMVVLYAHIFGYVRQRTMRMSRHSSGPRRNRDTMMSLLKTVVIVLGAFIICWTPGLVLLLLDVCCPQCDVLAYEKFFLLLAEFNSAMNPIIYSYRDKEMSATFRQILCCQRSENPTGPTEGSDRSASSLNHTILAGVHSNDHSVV

| Compound | IC50 [nM] |
| --- | --- |
| CCC(C)c1ncnc(NCc2c(-c3ccc(O[C@H]4CCC[C@H](C(=O)O)C4)c(C)n3)nnn2C)n1 (mixture of isomers) [Example 197, (1S,3S)-3-((6-(5-(((4-(sec-Butyl)-1,3,5-triazin-2-yl)amino)methyl)-1-methyl-1H-1,2,3-triazol-4-yl)-2-methylpyridin-3-yl)oxy)cyclohexane-1-carboxylic acid] | 94 |
| CCC(C)c1nc(O)nc(NCc2c(-c3ccc(O[C@H]4CCC[C@H](C(=O)O)C4)c(C)n3)nnn2C)n1 (mixture of isomers) [Example 198, (1S,3S)-3-((6-(5-(((4-(sec-Butyl)-6-hydroxy-1,3,5-triazin-2-yl)amino)methyl)-1-methyl-1H-1,2,3-triazol-4-yl)-2-methylpyridin-3-yl)oxy) cyclohexane-1-carboxylic acid] | 130 |
| Cc1nc(-c2nnn(C)c2COc2nccc(OC3CC3)n2)ccc1O[C@H]1CCCC(C(=O)O)C1 (mixture of isomers) [Example 251, (3S)-3-((6-(5-(((4-cyclopropoxypyrimidin-2-yl)oxy)methyl)-1-methyl-1H-1,2,3-triazol-4-yl)-2-methylpyridin-3-yl)oxy)cyclohexane-1-carboxylic acid] | 41 |
| Cc1nc(-c2nnn(C)c2COc2nccc(OC(C)C)n2)ccc1O[C@H]1CCC[C@@H](C(=O)O)C1 (single isomer, unassigned) [Example 249] | 67 |
| Cc1nc(-c2nnn(C)c2COc2nccc(OC(C)C)n2)ccc1O[C@H]1CCC[C@H](C(=O)O)C1 (single isomer, unassigned) [Example 250] | 41 |
| Cc1nc(-c2nnn(C)c2CNc2cc(-c3ccccc3)ccn2)ccc1O[C@H]1CCC[C@H](C(=O)O)C1 (stereo in doubt) [Example 2, (1S,3S)-3-((2-Methyl-6-(1-methyl-5-(((4-phenylpyridin-2-yl)amino)methyl)-1H-1,2,3-triazol-4-yl)pyridin-3-yl)oxy)cyclohexanecarboxylic acid] | 32 |
| Cc1nc(-c2nnn(C)c2CNc2nccc(C(C)(C)C)n2)ccc1O[C@H]1CCC[C@H](C(=O)O)C1 [Example 1, (1S,3S)-3-((6-(5-(((4-(tert-Butyl)pyrimidin-2-yl)amino)methyl)-1-methyl-1H-1,2,3-triazol-4-yl)-2-methylpyridin-3-yl)oxy)cyclohexanecarboxylic acid] | 26 |
| Cc1nc(-c2nnn(C)c2CNc2ncnc(-c3ccccc3)n2)ccc1O[C@H]1CCC[C@H](C(=O)O)C1 [Example 3, (1S,3S)-3-((2-Methyl-6-(1-methyl-5-(((4-phenyl-1,3,5-triazin-2-yl)amino)methyl)-1H-1,2,3-triazol-4-yl)pyridin-3-yl)oxy)cyclohexanecarboxylic acid] | 120 |
| COc1nc(NCc2c(-c3ccc(O[C@H]4CCC[C@H](C(=O)O)C4)c(C)n3)nnn2C)nc(-c2ccccc2)n1 [Example 4, (1S,3S)-3-((6-(5-(((4-Methoxy-6-phenyl-1,3,5-triazin-2-yl)amino)methyl)-1-methyl-1H-1,2,3-triazol-4-yl)-2-methylpyridin-3-yl)oxy)cyclohexanecarboxylic acid] | 153 |
| Cn1nnc(-c2cnc(O[C@H]3CCC[C@H](C(=O)O)C3)cn2)c1CNc1nccc(C(C)(C)C)n1 [Example 5, (1S,3S)-3-((5-(5-(((4-(tert-butyl)pyrimidin-2-yl)amino)methyl)-1-methyl-1H-1,2,3-triazol-4-yl)pyrazin-2-yl)oxy)cyclohexane-1-carboxylic acid] | 361 |
| CCCc1ccnc(NCc2c(-c3ccc(O[C@H]4CCC[C@H](C(=O)O)C4)c(C)n3)nnn2C)n1 [Example 7] | 8 |
| Cc1nc(-c2nnn(C)c2CNc2nccc(C(C)C)n2)ccc1O[C@H]1CCC[C@H](C(=O)O)C1 [Example 8] | 10 |
| Cc1nc(-c2nnn(C)c2CNc2nccc(C3CC3)n2)ccc1O[C@H]1CCC[C@H](C(=O)O)C1 [Example 9] | 36 |
| Cc1nc(-c2nnn(C)c2CNc2nccc(C3CCC3)n2)ccc1O[C@H]1CCC[C@H](C(=O)O)C1 [Example 10] | 11 |
| Cc1nc(-c2nnn(C)c2CNc2nccc(Cc3ccccc3)n2)ccc1O[C@H]1CCC[C@H](C(=O)O)C1 [Example 11] | 103 |
| COc1ccnc(NCc2c(-c3ccc(O[C@H]4CCC[C@H](C(=O)O)C4)c(C)n3)nnn2C)n1 [Example 12] | 56 |
| CCOc1ccnc(NCc2c(-c3ccc(O[C@H]4CCC[C@H](C(=O)O)C4)c(C)n3)nnn2C)n1 [Example 13] | 19 |
| Cc1nc(-c2nnn(C)c2CNc2nccc(OC(C)C)n2)ccc1O[C@H]1CCC[C@H](C(=O)O)C1 [Example 14] | 46 |
| Cc1nc(-c2nnn(C)c2CNc2nccc(Oc3ccccc3)n2)ccc1O[C@H]1CCC[C@H](C(=O)O)C1 [Example 15] | 8 |
| Cc1cc(OC(C)C)nc(NCc2c(-c3ccc(O[C@H]4CCC[C@H](C(=O)O)C4)c(C)n3)nnn2C)n1 [Example 16] | 29 |
| Cc1nc(-c2nnn(C)c2CNc2nccc(N3CCCC3)n2)ccc1O[C@H]1CCC[C@H](C(=O)O)C1 [Example 17] | 206 |
| Cc1nc(-c2nnn(C)c2CNc2nccc(C(F)(F)F)n2)ccc1O[C@H]1CCC[C@H](C(=O)O)C1 [Example 18] | 66 |
| Cc1cnc(NCc2c(-c3ccc(O[C@H]4CCC[C@H](C(=O)O)C4)c(C)n3)nnn2C)nc1-c1ccccc1 [Example 19] | 8 |
| Cc1nc(-c2nnn(C)c2CNc2nccc(-c3ccccc3F)n2)ccc1O[C@H]1CCC[C@H](C(=O)O)C1 [Example 20] | 16 |
| Cc1nc(-c2nnn(C)c2CNc2nccc(-c3ccccn3)n2)ccc1O[C@H]1CCC[C@H](C(=O)O)C1 [Example 21] | 101 |

| Compound | IC50 [nM] |
| --- | --- |
| COc1ccccc1-c1ccnc(NCc2c(-c3ccc(O[C@H]4CCC[C@H](C(=O)O)C4)c(C)n3)nnn2C)n1 [Example 22] | 219 |
| Cc1nc(-c2nnn(C)c2CNc2cc(C(C)(C)C)ncn2)ccc1O[C@H]1CCC[C@H](C(=O)O)C1 [Example 23] | 1050 |
| COc1cc(NCc2c(-c3ccc(O[C@H]4CCC[C@H](C(=O)O)C4)c(C)n3)nnn2C)ncn1 [Example 24] | 218 |
| Cc1nc(-c2nnn(C)c2CNc2ccnc(OC(C)C)n2)ccc1O[C@H]1CCC[C@H](C(=O)O)C1 [Example 25] | 145 |
| Cn1nnc(-c2ccc(O[C@H]3CCC[C@H](C(=O)O)C3)cn2)c1CNc1nccc(-c2ccccc2)n1 [Example 26] | 8 |
| Cn1nnc(-c2cnc(O[C@H]3CCC[C@H](C(=O)O)C3)cn2)c1CNc1nccc(-c2ccccc2)n1 [Example 27] | 26 |
| Cn1nnc(-c2ccc(O[C@H]3CCC[C@H](C(=O)O)C3)cn2)c1CNc1nccc(-c2ccccc2F)n1 [Example 28] | 19 |
| Cn1nnc(-c2ccc(O[C@H]3CCC[C@H](C(=O)O)C3)cn2)c1CNc1nccc(-c2ccccn2)n1 [Example 29] | 39 |
| Cc1cnc(NCc2c(-c3ccc(O[C@H]4CCC[C@H](C(=O)O)C4)cn3)nnn2C)nc1-c1ccccn1 [Example 30] | 300 |
| Cn1nnc(-c2ccc(O[C@H]3CCC[C@H](C(=O)O)C3)cn2)c1CNc1nccc(Oc2ccccc2)n1 [Example 31] | 178 |
| Cn1nnc(-c2ccc(O[C@H]3CCC[C@H](C(=O)O)C3)cn2)c1CNc1nccc(-c2cccnc2)n1 [Example 32] | 277 |
| Cn1nnc(-c2ccc(O[C@H]3CCC[C@H](C(=O)O)C3)cn2)c1CNc1nccc(-n2cccn2)n1 [Example 34] | 1130 |
| CC(C)c1ccnc(NCc2c(-c3ccc(O[C@H]4CCC[C@H](C(=O)O)C4)cn3)nnn2C)n1 [Example 35] | 28 |
| COc1ccccc1-c1ccnc(NCc2c(-c3ccc(O[C@H]4CCC[C@H](C(=O)O)C4)cn3)nnn2C)n1 [Example 36] | 59 |
| Cc1cc(-c2ccccn2)nc(NCc2c(-c3ccc(O[C@H]4CCC[C@H](C(=O)O)C4)cn3)nnn2C)n1 [Example 37] | 166 |
| Cn1nnc(-c2ccc(O[C@H]3CCC[C@H](C(=O)O)C3)cn2)c1CNc1nccc(C(C)(C)C)n1 [Example 38] | 36 |
| Cc1nc(-c2nnn(C)c2CNc2nccc(-c3ccccc3)n2)ccc1O[C@H]1CCC[C@H](C(=O)O)C1 [Example 39] | 41 |
| CCc1ccnc(NCc2c(-c3ccc(O[C@H]4CCC[C@H](C(=O)O)C4)c(C)n3)nnn2C)n1 [Example 40] | 46 |
| Cc1nc(-c2nnn(C)c2CNc2ncc(F)c(NCC(F)(F)F)n2)ccc1O[C@H]1CCC[C@H](C(=O)O)C1 [Example 41] | 208 |
| Cc1nc(-c2nnn(C)c2CNc2ncc(F)c(N3CCC3)n2)ccc1O[C@H]1CCC[C@H](C(=O)O)C1 [Example 42] | 218 |
| CCCN(C)c1nc(NCc2c(-c3ccc(O[C@H]4CCC[C@H](C(=O)O)C4)c(C)n3)nnn2C)ncc1F [Example 44] | 44 |
| Cc1nc(-c2nnn(C)c2CNc2ncc(F)c(NC3CC3)n2)ccc1O[C@H]1CCC[C@H](C(=O)O)C1 [Example 45] | 109 |
| CCCN(C)c1ccnc(NCc2c(-c3ccc(O[C@H]4CCC[C@H](C(=O)O)C4)c(C)n3)nnn2C)n1 [Example 46] | 304 |
| Cc1nc(-c2nnn(C)c2CNc2ncc(F)c(NCC3CC3)n2)ccc1O[C@H]1CCC[C@H](C(=O)O)C1 [Example 47] | 69 |
